The source made the active and inactive calls. The calls are words filed in the database; no cut-off is given here.
Key:
Rattus norvegicus [1] = assay: Gastrokinetic activity in Wistar rat gastroparesis model at 10 mg/kg, iv administered immediately post phenol red containing methylcellulose meal intake measured after 15 mins by colorimetric method relative to vehicle-treated control; format: functional, organism-based
Rattus norvegicus [2] = assay: Induction of gastric emptying of solid meal in Wistar rat gastroparesis model at 10 mg/kg, iv administered immediately post phenol red containing methylcellulose meal intake measured after 15 mins by colorimetric method relative to vehicle-treated control; format: functional, Stomach
Cytochrome P450 3A4 = Cytochrome P450 3A4 (Homo sapiens, UniProt P08684); assay: Inhibition of human CYP3A4 at 0.0457 to 100 uM; format: ADME
Rattus norvegicus [3] = assay: Induction of gastric emptying of solid meal in Wistar rat gastroparesis model at 100 ug/kg, iv administered immediately post phenol red containing methylcellulose meal intake measured after 15 mins by colorimetric method relative to vehicle-treated control; format: functional, Stomach
[4] = Metabolic stability in human plasma assessed as compound recovery in presence of PBS at 2 hrs by LC-MS analysis; format: ADME, cell-free; settings: read-out: Drug recovery

Chain of Cytochrome P450 3A4 (P08684 whole entry): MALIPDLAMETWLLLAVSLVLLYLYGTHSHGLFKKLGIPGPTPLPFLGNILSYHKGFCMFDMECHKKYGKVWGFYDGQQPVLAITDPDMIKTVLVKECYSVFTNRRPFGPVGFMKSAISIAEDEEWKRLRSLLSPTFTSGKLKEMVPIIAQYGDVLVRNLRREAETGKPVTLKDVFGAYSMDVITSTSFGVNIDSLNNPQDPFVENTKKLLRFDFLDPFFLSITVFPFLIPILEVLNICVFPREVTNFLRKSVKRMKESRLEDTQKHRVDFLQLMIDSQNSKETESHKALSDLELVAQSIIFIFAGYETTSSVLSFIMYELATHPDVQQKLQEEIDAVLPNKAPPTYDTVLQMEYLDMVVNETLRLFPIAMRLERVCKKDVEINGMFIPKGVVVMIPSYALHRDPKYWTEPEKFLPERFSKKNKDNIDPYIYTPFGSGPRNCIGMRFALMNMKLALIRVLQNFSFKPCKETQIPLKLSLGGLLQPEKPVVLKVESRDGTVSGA

Structure (SMILES)	Activity (Rattus norvegicus [1])	Activity (Rattus norvegicus [2]) [%]	inhibition (INH) (Cytochrome P450 3A4)	Activity (Rattus norvegicus [3])	remaining at 2 h [4] [%]
CCN(CC)CCNC(=O)c1cc(Cl)c(N)cc1OC.Cl	Active	41	–	–	–
C[C@@H]1CN[C@@H](C2CC2)C(=O)N(C)[C@H](C)C(=O)N[C@H](Cc2ccc(F)cc2)C(=O)NCCCc2ccccc2O1 [ULIMORELIN]	–	–	Active	30 - 39%	99

— ChEMBL document CHEMBL3879905, “Methods of using macrocyclic modulators of the ghrelin receptor” (2013)
